# Results from patent US10626368B2, “Method for inducing cerebral cortex neurons” (KYOTO UNIVERSITY, priority 2015, dated 2020).
# Experiments:
# iPS cells (836B1) = assay: Immunostaining for CoupTF1 and Ctip2 on day 46, suspension culture with various WNT inhibitors (Example 4); type: cell-based, human; conditions: 50 nM C59, 100 nM LGK-974, 1 μM ICG-001, day 46; C59 and LGK-974 compared with each other
# Experimental: On the day before induction of differentiation, in order to separate the iPS cells (836B1), which had been cultured in a culture medium to which 10 μM Y-27632 had been added, from the SNL feeder cells, the SNL cells were removed with CTK and the remaining cells were then dissociated using Accumax. The cells were transferred on a 96-well plate (Lipidure-coat 96-well plate) in an amount of 9×10^3 cells per well. Thereafter, the cells were subjected to a suspension culture in DMEM/F12 comprising 50 μM Y-27632, 10 μM SB43152, 10 ng/ml bFGF, various types of Wnt inhibitors (50 nM C59, 100 nM LGK-974, or 1 μM ICG-001 (Cellagen Technology)), 100 nM LDN193189, 10% KSR, 0.1 mM MEM non-essential amino acid, 0.1 mM 2-mercaptoethanol, and 2 mM L-Gln (initiation of differentiation induction, day 0). […] Three days later, the medium was exchanged with DMEM/F12 comprising various types of WNT inhibitors (C59, LGK-974, or ICG-001), 100 nM LDN193189, 10% KSR, 0.1 mM MEM non-essential amino acid, 0.1 mM 2-mercaptoethanol, and 2 mM L-Gln (day 6). Thereafter, the medium was exchanged with a fresh one of the same type every 3 days, and the culture was carried out for 18 days after the initiation of differentiation induction (day 18).
# A half of the medium on day 18 was removed by aspiration, and thereafter, Neurobasal, to which B27, 2 mM L-Gln, and 10 units/ml penicillin and streptomycin had been added, was added in the same amount as the removed medium to the remaining medium. Likewise, a half amount of the medium was exchanged on day 21. On day 24, the cells were transferred on a petri dish, and thereafter, a half of the medium was exchanged every 3 or 4 days. On day 46, the obtained cells were immunostained using antibodies against CoupTF1 and Ctip2. […] From the aforementioned results, it was confirmed that nerve cells existing in the desired corticocerebral motor area can be induced even by utilizing the WNT inhibitor LGK-974 having a similar action to C59.
# [1] = tested on: ES cells or the iPS cells; assay: Sphere formation and Pax6 immunostaining after 18 days of suspension culture; type: cell-based, human
# Experimental: On the day before induction of differentiation, in order to separate the ES cells or the iPS cells, which had been cultured in a culture medium to which 10 μM Y-27632 (WAKO) had been added, from the SNL feeder cells, the SNL cells were removed with CTK and the remaining cells were then dissociated using Accumax (ICT). The cells were transferred on a 96-well plate (Lipidure-coat 96-well plate (NOF Corporation)) in an amount of 9×10^3 cells per well. Thereafter, the cells were subjected to a suspension culture in DMEM/F12 (WAKO) comprising 50 μM Y-27632 (WAKO), 10 μM SB43152 (Sigma), 10 ng/ml bFGF (Invitrogen), various types of Wnt inhibitors (DKK1 (R & D, 500 ng/ml), C59 (Cellagen Technology, 2-10 nM), XAV (Stemgent, 500 nM-2 μM) or IWP4 (Stemgent, 500 nM-2.5 μM)), LDN193189 (Stemgent), KSR (Invitrogen), 0.1 mM MEM non-essential amino acid (Invitrogen), 0.1 mM 2-mercaptoethanol (WAKO), and 2 mM L-Gln (Invitrogen) (initiation of differentiation induction, day 0). […] Furthermore, the expression levels of the Foxg1, Lhx2, Emx2 and CoupTF1 genes in the obtained spheres were measured according to a qPCR method (FIG. 4B). […]
smiles,measurement,setting,value
Cc1cc(-c2ccc(CC(=O)Nc3ccc(-c4cccnc4)cc3)cc2)ccn1 [C59],efficiency of inducing CoupTF1-negative Ctip2-positive cells,iPS cells (836B1),not found a large difference
same,sphere formation in the suspension culture,"[1]; 1 μM C59, 18 days",no spheres were formed
same,Pax6-positive cells in spheres (immunostaining),"[1]; without C59, 2.5 nM and 10 nM C59, 18 days",positive cells were confirmed under all conditions
